Reference: patent publication US20200163984A1, “USE OF ISOVALERYL SPIRAMYCIN I, II AND/OR III IN MANUFACTURING MEDICAMENT FOR TREATING AND/OR PREVENTING TUMOR, AND MEDICAMENT” (SHENYANG FUYANG PHARMACEUTICAL TECHNOLOGY CO., LTD., priority 2017, published 2020)
≈ marks a conversion by molar mass, not a printed value.

How the values were obtained:
[1] = test system: human tissue lymphoma cell U937; conditions: U937, MTT, 48 h
Experimental: (§1) The purpose of the assay is to evaluate the in vitro cell proliferation inhibition or cytotoxic activity of a tested sample.
(§2) U937 and HL-60 were suspension cells, and cells in a logarithmic growth phase were selected and prepared into a 2×10^5/ml cell suspension by a RPMI 1640 culture medium containing 10% fetal bovine serum. And the cell suspension was inoculated in a 96-well culture plate, and each well was 50 μL and the 96-well culture plate was cultured at 37° C. and 5% CO2 for 24 hours. 50 μL of a culture medium containing different concentrations of the tested sample isovaleryl spiramycin I, isovaleryl spiramycin II, or isovaleryl spiramycin III was added in the experimental group, while a culture medium containing the same volume of solvent was added into the control group. Each group was set up with 3 parallel wells that were cultured at 37° C. and 5% CO2 for 48 h. And 10 μL of freshly prepared medium containing 5 mg/ml MTT was added into each well for continuous incubation for 4 hours at 37° C. The crystals were dissolved in 100 μL of a triple solution (SDS 10 g, 10 M HCl 0.1 mL, isobutanol 5 mL, diluted with distilled water to 100 mL), and incubated at 37° C. for 12 hours. The optical density value was measured at 492 nm with a microplate reader.
(§3) The inhibition rate of the medicament on tumor cell growth is calculated according to the following formula:
(§4) Tumor cell growth inhibition rate (%)=[A492 (negative control)−A492 (dosing group)]/A492 (negative control)×100%
(§5) And the half-inhibitory concentration (IC50) of the sample is determined therefrom.

[2] = test system: human promyelocytic leukemia cell HL-60; conditions: HL-60, MTT, 48 h
Experimental: as §1, §2, §3, §4, §5

[3] = test system: transplanted tumor of human thyroid cancer cell TPC-1; assay: TPC-1 transplanted tumor in nude mice; conditions: for Tumor Volume (mm3) (d30): d 30
Experimental: (§6) Then cell concentration was adjusted to 1×10^7/ml with matrigel, then each nude mouse was inoculated subcutaneously with 0.2 ml of cells at its right armpit and recorded as the first day of inoculation. When the tumor grows to be greater than or equal to 100 mm^3, the mice were randomly divided into 11 groups with 6 mice in each group: isovaleryl spiramycin I groups with doses of 25, 50 and 100 mg/kg, isovaleryl spiramycin II groups with doses of 25, 50 and 100 mg/kg, and isovaleryl spiramycin III groups with doses of 25, 50 and 100 mg/kg. Each group was continuously administered intragastrically for 30 days with a dose of 20 ml/kg. The mice were sacrificed the next day after drug withdrawal and the indicators were tested. The long diameter and short diameter of the tumor, and the body weight of each mouse were recorded every 3 days from drug administration to nude mouse sacrifice.
(§7) The body weight of the nude mice and the long diameter (a) and short diameter (b) of the transplanted tumor were measured every 3 days, and the tumor volume (v), relative tumor volume (RTV) and relative tumor proliferation rate (T/C) are calculated respectively according to the following formulas, wherein V=a×b^2/2; RTV=V/V0 (V0 is the tumor volume before administration, V is the tumor volume before sacrifice), and T/C (%)=treatment group RTV/model control group RTV×100%.
(§8) Each mouse was weighed and sacrificed. After the tumor was completely stripped off from the body of the mouse, the non-tumor tissues such as blood stains and fat were removed to weigh the tumor and calculate the tumor growth inhibition rate. The average tumor weight of each group of mice is used as an indicator of efficacy. Tumor growth inhibition rate (%)=(1−the average tumor weight of the treatment group/the average tumor weight of the model group)×100%.

[4] = test system: transplanted tumor of human esophageal cancer cell TE-1; assay: TE-1 transplanted tumor in nude mice
Experimental: as §6, with “group: a model group, a cyclophosphamide group,” for “group:”
as §7, §8

[5] = TPC-1, high dose (100 mg/kg in method) i.g. 30 days
[6] = TPC-1, low dose (25 mg/kg in method) i.g. 30 days
[7] = TPC-1, medium dose (50 mg/kg in method) i.g. 30 days
[8] = TE-1, 12.5 mg/kg (low dose) i.g. 30 days
[9] = TE-1, 25 mg/kg (medium dose) i.g. 30 days
[10] = TE-1, 50 mg/kg (high dose) i.g. 30 days

Structure (SMILES): CO[C@@H]1[C@@H](O[C@@H]2O[C@H](C)[C@@H](O[C@H]3C[C@@](C)(O)[C@@H](OC(=O)CC(C)C)[C@H](C)O3)[C@H](N(C)C)[C@H]2O)[C@@H](CC=O)C[C@@H](C)[C@@H](O[C@H]2CC[C@H](N(C)C)[C@@H](C)O2)/C=C/C=C/C[C@@H](C)OC(=O)C[C@H]1O [Isovaleryl spiramycin I, isovaleryl spiramycin I]
- IC50 [1]: 10.88 ± 0.05 µg/mL (≈ 11.7 µM)
- IC50 [2]: 16.52 ± 1.26 µg/mL (≈ 17.8 µM)
- Relative Tumor Proliferation Rate (T/C) [3, 5]: 28.11%
- tumor growth inhibition rate [3, 5]: 67.49%
- Relative Tumor Proliferation Rate (T/C) [3, 6]: 65.45%
- tumor growth inhibition rate [3, 6]: 23.88%
- tumor volume and relative tumor volume compared with the model group ([3]; TPC-1, low, medium and high doses, P<0.05): significantly lower
- Relative Tumor Proliferation Rate (T/C) [3, 7]: 43.43%
- tumor growth inhibition rate [3, 7]: 57.28%
- Inhibition Rate (%) ([3]; dose 25 mg/kg): 23.88%
- Relative Tumor Proliferation Rate (T/C) ([3]; dose 25 mg/kg): 65.45%
- Relative Tumor Volume (RTV) ([3]; dose 25 mg/kg): 10.77 ± 2.47
- Tumor Weight ([3]; dose 25 mg/kg): 1.84 ± 0.25 g
- Tumor Volume (mm3) (d 1) ([3]; dose 25 mg/kg): 115.05 ± 9.93 mm3
- Tumor Volume (mm3) (d30) ([3]; dose 25 mg/kg): 1249.28 ± 337.45 mm3
- Inhibition Rate (%) ([3]; dose 50 mg/kg): 57.28%
- Relative Tumor Proliferation Rate (T/C) ([3]; dose 50 mg/kg): 43.43%
- Relative Tumor Volume (RTV) ([3]; dose 50 mg/kg): 7.15 ± 3.19
- Tumor Weight ([3]; dose 50 mg/kg): 1.03 ± 0.44 g
- Tumor Volume (mm3) (d 1) ([3]; dose 50 mg/kg): 119.45 ± 4.30 mm3
- Tumor Volume (mm3) (d30) ([3]; dose 50 mg/kg): 847.07 ± 356.87 mm3
- Inhibition Rate (%) ([3]; dose 100 mg/kg): 67.49%
- Relative Tumor Proliferation Rate (T/C) ([3]; dose 100 mg/kg): 28.11%
- Relative Tumor Volume (RTV) ([3]; dose 100 mg/kg): 4.63 ± 3.34
- Tumor Weight ([3]; dose 100 mg/kg): 0.79 ± 0.43 g
- Tumor Volume (mm3) (d 1) ([3]; dose 100 mg/kg): 112.69 ± 11.49 mm3
- Tumor Volume (mm3) (d30) ([3]; dose 100 mg/kg): 490.15 ± 322.14 mm3
- mouse weight compared with the model group ([3]; mouse, in vivo): no significant changes
- Body Weight (g) (d1) ([3]; mouse, in vivo, 25 mg/kg): 21.75 ± 1.23 g
- Body Weight (g) (d30) ([3]; mouse, in vivo, 25 mg/kg): 24.41 ± 1.32 g
- Body Weight (g) (d1) ([3]; mouse, in vivo, 50 mg/kg): 21.53 ± 1.43 g
- Body Weight (g) (d30) ([3]; mouse, in vivo, 50 mg/kg): 25.77 ± 1.10 g
- Body Weight (g) (d1) ([3]; mouse, in vivo, 100 mg/kg): 21.76 ± 1.08 g
- Body Weight (g) (d30) ([3]; mouse, in vivo, 100 mg/kg): 24.12 ± 1.20 g
- Inhibition Rate (tumor growth inhibition rate) [4, 8]: 30.92%
- Relative Tumor Proliferation Rate (T/C) [4, 8]: 60.55%
- Relative Tumor Volume (RTV) [4, 8]: 5.48 ± 3.80
- Tumor Volume (d 1) [4, 8]: 408.51 ± 150.80 mm3
- Tumor Volume (d 30) [4, 8]: 2690.27 ± 374.79 mm3
- Tumor Weight [4, 8]: 1.08 ± 0.24 g
- Inhibition Rate (tumor growth inhibition rate) [4, 9]: 51.01%
- Relative Tumor Proliferation Rate (T/C) [4, 9]: 40.70%
- Relative Tumor Volume (RTV) [4, 9]: 3.94 ± 2.71
- Tumor Volume (d 1) [4, 9]: 258.44 ± 104.69 mm3
- Tumor Volume (d 30) [4, 9]: 1143.85 ± 402.36 mm3
- Tumor Weight [4, 9]: 0.77 ± 0.43 g
- Inhibition Rate (tumor growth inhibition rate) [4, 10]: 69.71%
- Relative Tumor Proliferation Rate (T/C) [4, 10]: 20.61%
- Relative Tumor Volume (RTV) [4, 10]: 3.65 ± 1.71
- Tumor Volume (d 1) [4, 10]: 279.56 ± 156.70 mm3
- Tumor Volume (d 30) [4, 10]: 626.64 ± 431.35 mm3
- Tumor Weight [4, 10]: 0.48 ± 0.36 g
- tumor volume and relative tumor volume compared with the model group ([4]; TE-1, low, medium and high doses, P<0.05): significantly lower
- mouse weight compared with the model group ([4]; mouse, in vivo): no significant changes
